Laboratory results taken from US20240059691A1 (KALVISTA PHARMACEUTICALS LIMITED, priority 2020, published 2024).

Experiments:
Assay type in all cases: biochemical
FXa = FXa (Homo sapiens (Human), UniProt P00742); assay: Determination of related protease inhibition: FXa (fluorogenic substrate at Km); settings: 25° C.
Procedure: (§1) Determination of Related Protease Inhibition
(§2) In vitro inhibition of related proteases was determined using an ([…] assay based on standard literature methods (see e.g. Shori et al., Biochem. Pharmacol., 1992, 43, 1209; Bouckaert et al., European Journal of Medicinal Chemistry 110 (2016) 181). Human serine protease enzymes Plasma Kallikrein, KLK1, FXa, Plasmin, Thrombin and Trypsin were assayed for enzymatic activity using an appropriate fluorogenic substrate at Km concentration, FXIa at fixed substrate concentration of 100 μM, and various concentrations of the test compound. Protease activity was measured by monitoring the accumulation of liberated fluorescence from the substrate over […]. The linear rate of fluorescence increase per minute was expressed as percentage (%) activity. IC50 values were calculated as the concentration of inhibitor giving 50% inhibition of the uninhibited enzyme activity (100%).

Thrombin = Thrombin (Homo sapiens (Human), UniProt P00734); assay: Determination of related protease inhibition: Thrombin (fluorogenic substrate at Km); settings: 25° C.
Procedure: as §1, §2

Plasma Kallikrein = Plasma Kallikrein (Homo sapiens (Human), UniProt P03952); assay: Determination of related protease inhibition: Plasma Kallikrein (fluorogenic substrate at Km); settings: 25° C., read-out: IC50 (human PKal)
How it was run: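 Human protease + fluorogenic substrate (at Km) + test cpd, varied concns; fluorescence kinetic read 5 min, 25 °C. Linear slope → % activity vs uninhibited control; IC50 at 50% inhibition.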

KLK1 = KLK1 (Homo sapiens (Human), UniProt P06870); assay: Determination of related protease inhibition: KLK1 (fluorogenic substrate at Km); settings: 25° C.
Procedure: as §1, §2

Human Factor XIIa = Human Factor XIIa (Homo sapiens (Human), UniProt P00748); assay: Determination of FXIIa inhibition (fluorogenic substrate H-DPro-Phe-Arg-AFC, IC50 assay); settings: substrate H-DPro-Phe-Arg-AFC at Km, 25° C.; class scale A-G
How it was run: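 Human FXIIa incubated at 25° C with fluorogenic substrate H-DPro-Phe-Arg-AFC at its Km concentration and varying compound concentrations. Fluorescence release monitored over 5 min at 25° C; linear rate expressed as % of uninhibited activity to derive IC50.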

Sequence of FXa (P00742 235-488): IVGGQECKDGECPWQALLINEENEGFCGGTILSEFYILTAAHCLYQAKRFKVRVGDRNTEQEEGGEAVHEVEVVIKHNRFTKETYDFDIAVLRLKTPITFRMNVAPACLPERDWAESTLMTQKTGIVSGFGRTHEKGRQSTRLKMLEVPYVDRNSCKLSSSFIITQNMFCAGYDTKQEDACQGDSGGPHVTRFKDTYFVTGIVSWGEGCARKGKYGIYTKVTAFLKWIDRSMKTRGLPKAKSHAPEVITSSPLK
Sequence of FXa (P00742 41-179 partner): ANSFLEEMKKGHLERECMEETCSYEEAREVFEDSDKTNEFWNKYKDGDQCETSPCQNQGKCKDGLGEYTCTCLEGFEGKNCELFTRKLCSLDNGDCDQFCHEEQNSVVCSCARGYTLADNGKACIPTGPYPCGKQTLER
Sequence of KLK1 (P06870 25-262): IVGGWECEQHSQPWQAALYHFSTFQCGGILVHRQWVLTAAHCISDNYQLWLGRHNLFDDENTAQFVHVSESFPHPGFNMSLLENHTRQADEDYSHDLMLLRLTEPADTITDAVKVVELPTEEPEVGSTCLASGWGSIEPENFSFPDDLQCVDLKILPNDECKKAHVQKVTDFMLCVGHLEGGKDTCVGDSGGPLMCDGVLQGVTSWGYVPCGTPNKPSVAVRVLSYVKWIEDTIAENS
Sequence of Human Factor XIIa (P00748 373-615): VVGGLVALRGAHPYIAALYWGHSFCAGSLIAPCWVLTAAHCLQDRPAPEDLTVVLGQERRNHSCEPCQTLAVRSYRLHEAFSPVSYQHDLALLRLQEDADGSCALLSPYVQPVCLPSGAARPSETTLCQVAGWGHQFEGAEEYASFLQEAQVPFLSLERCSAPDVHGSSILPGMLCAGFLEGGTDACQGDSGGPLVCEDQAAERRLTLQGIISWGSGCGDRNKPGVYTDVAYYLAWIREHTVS
Sequence of Plasma Kallikrein (P03952 391-638): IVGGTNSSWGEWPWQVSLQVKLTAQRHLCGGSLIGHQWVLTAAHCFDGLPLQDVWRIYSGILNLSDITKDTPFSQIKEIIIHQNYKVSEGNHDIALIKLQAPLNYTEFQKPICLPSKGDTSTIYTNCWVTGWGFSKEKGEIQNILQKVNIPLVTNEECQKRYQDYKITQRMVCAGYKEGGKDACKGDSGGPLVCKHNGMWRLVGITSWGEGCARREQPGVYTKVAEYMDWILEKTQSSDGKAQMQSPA
Sequence of Plasma Kallikrein (P03952 20-390 partner): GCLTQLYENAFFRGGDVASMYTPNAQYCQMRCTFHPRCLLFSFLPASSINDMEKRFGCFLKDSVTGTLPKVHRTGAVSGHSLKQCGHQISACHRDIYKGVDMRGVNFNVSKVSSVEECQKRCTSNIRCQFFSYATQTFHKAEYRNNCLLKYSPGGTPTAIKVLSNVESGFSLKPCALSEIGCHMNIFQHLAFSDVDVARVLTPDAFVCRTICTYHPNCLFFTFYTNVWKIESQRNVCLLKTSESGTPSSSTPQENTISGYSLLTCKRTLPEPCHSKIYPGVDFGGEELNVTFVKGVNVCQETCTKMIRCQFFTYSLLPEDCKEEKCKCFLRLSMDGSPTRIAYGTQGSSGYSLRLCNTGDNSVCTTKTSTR

Row | SMILES | IC50 (FXa) [µM] | IC50 (Thrombin) [µM] | IC50 (Plasma Kallikrein) [µM] | IC50 (KLK1) [µM] | IC50 (Human Factor XIIa) [µM]
1 | CN1CCC(COc2cc(CNc3cccc4c(N)nccc34)cc(C(F)(F)F)n2)CC1 [Example 4281, 5-N-[[2-[(1-methyl-4-piperidyl)methoxy]-6-(trifluoromethyl)-4-pyridyl]methyl]isoquinoline-1,5-diamine] | > 40 | > 40 | > 40 | 3 to 10 | 0.3 to 1
2 | CC(=O)N1CC2CC1CC2COc1cc(CNc2ccc3c(N)nccc3c2)ccn1 (centres unmarked) [Example 4275, 1-(5-(((4-(((1-aminoisoquinolin-6-yl)amino)methyl)pyridin-2-yl)oxy)methyl)-2-azabicyclo[2.2.1]heptan-2-yl)ethan-1-one] | 0.3 to 1 | 0.3 to 1 | 10 to 40 | 1 to 3 | 1 to 3
3 | CN1C[C@@H](COc2cc(CNc3cccc4c(N)nccc34)ccn2)OC1=O [Example 4279, (5S)-5-{[(4-{[(1-aminoisoquinolin-5-yl)amino]methyl}pyridin-2-yl)oxy]methyl}-3-methyl-1,3-oxazolidin-2-one] | > 40 | > 40 | > 40 | 10 to 40 | 3 to 10
4 | Cn1ccnc1CCOc1cc(CNc2ccc3c(N)nccc3c2)ccn1 [Example 4283, 6-N-({2-[2-(1-methylimidazol-2-yl)ethoxy]pyridin-4-yl}methyl)isoquinoline-1,6-diamine] | 3 to 10 | 1 to 3 | 3 to 10 | 0.3 to 1 | 1 to 3
5 | CN1CCC(CNc2cc(CNc3ccc4c(N)ncc(Cl)c4c3)ccn2)CC1 [Example 4285, 4-Chloro-N6-((2-(((1-methylpiperidin-4-yl)methyl)amino)pyridin-4-yl)methyl)isoquinoline-1,6-diamine] | 10 to 40 | > 40 | > 40 | 3 to 10 | 0.01 to 0.1
6 | CC(=O)N1CC2CC1CC2COc1cc(CNc2cccc3c(N)nccc23)ccn1 (centres unmarked) [Example 4274, 1-(5-(((4-(((1-Aminoisoquinolin-5-yl)amino)methyl)pyridin-2-yl)oxy)methyl)-2-azabicyclo[2.2.1]heptan-2-yl)ethan-1-one] | 1 to 3 | 10 to 40 | > 40 | 3 to 10 | 1 to 3
7 | COc1nnc2n1CCN(c1ccc(CNc3cccc4c(N)nccc34)cn1)C2 [Example 1250, N5-((6-(3-methoxy-5,6-dihydro-[1,2,4]triazolo[4,3-a]pyrazin-7(8H)-yl)pyridin-3-yl)methyl)isoquinoline-1,5-diamine] | > 40 | > 40 | > 40 | 3 to 10 | 1 to 3
8 | CN1CCN(CCc2ccc(CNc3ccc4c(N)ncc(Cl)c4c3)c(F)c2)CC1 [Example 2184, 4-Chloro-N6-[[2-fluoro-4-[2-(4-methylpiperazin-1-yl)ethyl]phenyl]methyl]isoquinoline-1,6-diamine] | > 40 | > 40 | > 40 | 3 to 10 | 3 to 10
9 | Nc1nccc2cc(NCc3ccnc(OCC4CCn5ccnc5C4)c3)ccc12 (single isomer, unassigned) [Example 4267, 6-N-({2-[(7S*)-5H,6H,7H,8H-imidazo[1,2-a]pyridin-7-ylmethoxy]pyridin-4-yl}methyl)isoquinoline-1,6-diamine] | 0.1 to 0.3 | 0.3 to 1 | 3 to 10 | 0.3 to 1 | 0.01 to 0.1
10 | CN1CCC(COc2cc(CNc3ccnc4c(N)nccc34)ccn2)CC1 [Example 4272, 4-N-[[2-[(1-methyl-4-piperidyl)methoxy]-4-pyridyl]methyl]-1,7-naphthyridine-4,8-diamine] | > 40 | > 40 | > 40 | > 40 | 3 to 10
11 | Nc1nccc2c(NCc3ccc(CCN4CCOCC4)cc3F)cccc12 [Example 2183, N5-[[2-fluoro-4-(2-morpholinoethyl)phenyl]methyl]isoquinoline-1,5-diamine] | > 40 | > 40 | > 40 | 10 to 40 | 0.3 to 1
12 | Cn1ccnc1CCOCc1ccc(CNc2cccc3c(N)nccc23)c(F)c1 [Example 2208, N5-[[2-fluoro-4-[2-(1-methylimidazol-2-yl)ethoxymethyl]phenyl]methyl]isoquinoline-1,5-diamine] | 10 to 40 | 10 to 40 | > 40 | 10 to 40 | 1 to 3
13 | Nc1nccc2c(NCc3ccnc(OCC4CCn5c(nnc5C(F)F)C4)c3)cccc12 (centres unmarked) [Example 4467, N5-((2-((3-(difluoromethyl)-5,6,7,8-tetrahydro-[1,2,4]triazolo[4,3-a]pyridin-7-yl)methoxy)pyridin-4-yl)methyl)isoquinoline-1,5-diamine] | 10 to 40 | 10 to 40 | > 40 | 3 to 10 | 0.1 to 0.3
14 | CC(C)N1CC2(CN(Cc3ccc(CNc4cccc5c(N)nccc45)c(F)c3)C2)C1 [Example 1036, N5-(2-fluoro-4-((6-isopropyl-2,6-diazaspiro[3.3]heptan-2-yl)methyl)benzyl)isoquinoline-1,5-diamine] | > 40 | > 40 | 10 to 40 | 10 to 40 | 0.3 to 1
15 | CN1[C@@H]2COC[C@H]1CC(OCc1ccc(CNc3cccc4c(N)nccc34)c(F)c1)C2 (stereo partly drawn) [Example 2254, N5-(2-fluoro-4-((((1R,5S)-9-methyl-3-oxa-9-azabicyclo[3.3.1]nonan-7-yl)oxy)methyl)benzyl)isoquinoline-1,5-diamine] | 10 to 40 | > 40 | > 40 | 10 to 40 | 0.1 to 0.3
16 | CN1CCC(CNc2ccc(CNc3ccc4cnccc4c3Cl)cn2)CC1 [Example 1209, 5-chloro-N-((6-(((1-methylpiperidin-4-yl)methyl)amino)pyridin-3-yl)methyl)isoquinolin-6-amine] | > 40 | > 40 | > 40 | > 40 | 3 to 10
17 | CN1CC2CCC(C1)C2COc1cc(CNc2cccc3c(N)nccc23)ccn1 (centres unmarked) [Example 4278, 5-N-[[2-[(3-methyl-3-azabicyclo[3.2.1]octan-8-yl)methoxy]-4-pyridyl]methyl]isoquinoline-1,5-diamine] | 1 to 3 | > 40 | > 40 | 3 to 10 | 0.1 to 0.3
18 | Nc1ncc(Cl)c2cc(NCc3ccc(CCN4CCOCC4)cc3F)ccc12 [Example 2215, 4-chloro-6-N-({2-fluoro-4-[2-(morpholin-4-yl)ethyl]phenyl}methyl)isoquinoline-1,6-diamine] | > 40 | > 40 | > 40 | 10 to 40 | 10 to 40
19 | Nc1nccc2c(NCc3ccc(N4CCn5c(nnc5C(F)(F)F)C4)nc3C(F)(F)F)cccc12 [Example 1298, N5-((2-(trifluoromethyl)-6-(3-(trifluoromethyl)-5,6-dihydro-[1,2,4]triazolo[4,3-a]pyrazin-7(8H)-yl)pyridin-3-yl)methyl)isoquinoline-1,5-diamine] | > 40 | – | > 40 | 10 to 40 | 1 to 3
20 | CN1CCC(COc2cc(CNc3ccc4c(N)nccc4c3)cc(C(F)(F)F)n2)CC1 [Example 4265, N6-((2-((1-methylpiperidin-4-yl)methoxy)-6-(trifluoromethyl)pyridin-4-yl)methyl)isoquinoline-1,6-diamine] | 1 to 3 | 0.3 to 1 | – | 0.3 to 1 | 0.1 to 0.3
21 | CC1c2nnc(C(F)(F)F)n2CCN1c1ccc(CNc2cccc3c(N)nccc23)cn1 (single isomer, unassigned) [Example 1294, (R*)-N5-((6-(8-methyl-3-(trifluoromethyl)-5,6-dihydro-[1,2,4]triazolo[4,3-a]pyrazin-7(8H)-yl)pyridin-3-yl)methyl)isoquinoline-1,5-diamine] | > 40 | – | > 40 | 3 to 10 | 10 to 40
22 | CC1c2nnc(C(F)(F)F)n2CCN1c1ccc(CNc2cccc3c(N)nccc23)cn1 (single isomer, unassigned) [Example 1295, (S*)-N5-((6-(8-methyl-3-(trifluoromethyl)-5,6-dihydro-[1,2,4]triazolo[4,3-a]pyrazin-7(8H)-yl)pyridin-3-yl)methyl)isoquinoline-1,5-diamine] | > 40 | – | 10 to 40 | 3 to 10 | 0.01 to 0.1
23 | Nc1nccc2c(NCc3ccc(N4CCn5c(nnc5C(F)(F)F)C4)cc3)cccc12 [Example 1300, N5-(4-(3-(trifluoromethyl)-5,6-dihydro-[1,2,4]triazolo[4,3-a]pyrazin-7(8H)-yl)benzyl)isoquinoline-1,5-diamine] | > 40 | – | > 40 | 3 to 10 | 0.1 to 0.3
